From PubChem BioAssay (NCI)
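Assay format: 96-well plates, 48-hour exposure. TGI is the concentration that stops growth completely.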

Experiments:
Assay in all cases: inhibition of tumour cell growth, NCI panel, 48 h
A498 renal = system: A498 renal
A549 NSCLC = system: A549 NSCLC
ACHN renal = system: ACHN renal
CAKI-1 renal = system: CAKI-1 renal
CCRF-CEM leukemia = system: CCRF-CEM leukemia
COLO 205 colon = system: COLO 205 colon
DLD-1 colon = system: DLD-1 colon
DMS 273 small cell lung = system: DMS 273 small cell lung
EKVX NSCLC = system: EKVX NSCLC
HCC-2998 colon = system: HCC-2998 colon
HCT-116 colon = system: HCT-116 colon
HCT-15 colon = system: HCT-15 colon
HL-60(TB) leukemia = system: HL-60(TB) leukemia
HOP-62 NSCLC = system: HOP-62 NSCLC
HOP-92 NSCLC = system: HOP-92 NSCLC
HT29 colon = system: HT29 colon
IGROV1 ovarian = system: IGROV1 ovarian
K-562 leukemia = system: K-562 leukemia
KM12 colon = system: KM12 colon
KM20L2 colon = system: KM20L2 colon
LOX IMVI melanoma = system: LOX IMVI melanoma
LXFL 529 NSCLC = system: LXFL 529 NSCLC
M14 melanoma = system: M14 melanoma
M19-MEL melanoma = system: M19-MEL melanoma
MOLT-4 leukemia = system: MOLT-4 leukemia
NCI-H226 lung = system: NCI-H226 lung
NCI-H23 lung = system: NCI-H23 lung
NCI-H460 lung = system: NCI-H460 lung
NCI-H522 lung = system: NCI-H522 lung
OVCAR-4 ovarian = system: OVCAR-4 ovarian
OVCAR-5 ovarian = system: OVCAR-5 ovarian
OVCAR-8 ovarian = system: OVCAR-8 ovarian
RPMI-8226 leukemia = system: RPMI-8226 leukemia
SF-268 CNS = system: SF-268 CNS
SF-295 CNS = system: SF-295 CNS
SF-539 CNS = system: SF-539 CNS
SK-MEL-2 melanoma = system: SK-MEL-2 melanoma
SK-MEL-28 melanoma = system: SK-MEL-28 melanoma
SK-MEL-5 melanoma = system: SK-MEL-5 melanoma
SK-OV-3 ovarian = system: SK-OV-3 ovarian
SN12C renal = system: SN12C renal
SNB-19 CNS = system: SNB-19 CNS
SNB-75 CNS = system: SNB-75 CNS
SNB-78 CNS = system: SNB-78 CNS
SR leukemia = system: SR leukemia
SW-620 colon = system: SW-620 colon
TK-10 renal = system: TK-10 renal
U251 CNS = system: U251 CNS
UACC-257 melanoma = system: UACC-257 melanoma
UACC-62 melanoma = system: UACC-62 melanoma
UO-31 renal = system: UO-31 renal
XF 498 CNS = system: XF 498 CNS
786-0 renal = system: 786-0 renal
DMS 114 small cell lung = system: DMS 114 small cell lung
MALME-3M melanoma = system: MALME-3M melanoma
OVCAR-3 ovarian = system: OVCAR-3 ovarian
RXF 393 renal = system: RXF 393 renal

SMILES: O=S1c2ccccc2N=C(c2ccc3ccccc3c2)CC1c1ccccc1 (configuration not stated)
- TGI (A498 renal): 35.9 µM
- TGI (A549 NSCLC): 41.3 µM
- TGI (ACHN renal): 31.8 µM
- TGI (CAKI-1 renal): > 100 µM
- TGI (CCRF-CEM leukemia): 81.2 µM
- TGI (COLO 205 colon): 40 µM
- TGI (DLD-1 colon): 48.4 µM
- TGI (DMS 273 small cell lung): > 100 µM
- TGI (EKVX NSCLC): 91.5 µM
- TGI (HCC-2998 colon): 36.6 µM
- TGI (HCT-116 colon): 33.6 µM
- TGI (HCT-15 colon): 32.5 µM
- TGI (HL-60(TB) leukemia): 58.1 µM
- TGI (HOP-62 NSCLC): > 100 µM
- TGI (HOP-92 NSCLC): > 100 µM
- TGI (HT29 colon): 35.1 µM
- TGI (IGROV1 ovarian): 40.3 µM
- TGI (K-562 leukemia): 62.1 µM
- TGI (KM12 colon): 28.8 µM
- TGI (KM20L2 colon): 35.7 µM
- TGI (LOX IMVI melanoma): 36.5 µM
- TGI (LXFL 529 NSCLC): 29.8 µM
- TGI (M14 melanoma): > 100 µM
- TGI (M19-MEL melanoma): 34.9 µM
- TGI (MOLT-4 leukemia): > 100 µM
- TGI (NCI-H226 lung): 78.9 µM
- TGI (NCI-H23 lung): 39 µM
- TGI (NCI-H460 lung): 41 µM
- TGI (NCI-H522 lung): 34.9 µM
- TGI (OVCAR-4 ovarian): 56.1 µM
- TGI (OVCAR-5 ovarian): 42.9 µM
- TGI (OVCAR-8 ovarian): 30 µM
- TGI (RPMI-8226 leukemia): 94.4 µM
- TGI (SF-268 CNS): 37.2 µM
- TGI (SF-295 CNS): 36.2 µM
- TGI (SF-539 CNS): 37.7 µM
- TGI (SK-MEL-2 melanoma): 92.3 µM
- TGI (SK-MEL-28 melanoma): > 100 µM
- TGI (SK-MEL-5 melanoma): > 100 µM
- TGI (SK-OV-3 ovarian): 92.6 µM
- TGI (SN12C renal): 73.9 µM
- TGI (SNB-19 CNS): 34.9 µM
- TGI (SNB-75 CNS): 38.5 µM
- TGI (SNB-78 CNS): > 100 µM
- TGI (SR leukemia): 63.8 µM
- TGI (SW-620 colon): 29.3 µM
- TGI (TK-10 renal): 68.7 µM
- TGI (U251 CNS): 32.6 µM
- TGI (UACC-257 melanoma): > 100 µM
- TGI (UACC-62 melanoma): > 100 µM
- TGI (UO-31 renal): 32.4 µM
- TGI (XF 498 CNS): > 100 µM

SMILES: Cn1c(=O)c2c(ncn2CCCCn2ccnc2[N+](=O)[O-])n(C)c1=O
- TGI (786-0 renal): > 100 µM
- TGI (A549 NSCLC): > 100 µM
- TGI (ACHN renal): > 100 µM
- TGI (CCRF-CEM leukemia): > 100 µM
- TGI (COLO 205 colon): > 100 µM
- TGI (DMS 114 small cell lung): > 100 µM
- TGI (DMS 273 small cell lung): > 100 µM
- TGI (EKVX NSCLC): > 100 µM
- TGI (HCT-116 colon): > 100 µM
- TGI (HCT-15 colon): > 100 µM
- TGI (HL-60(TB) leukemia): > 100 µM
- TGI (HOP-62 NSCLC): > 100 µM
- TGI (HT29 colon): > 100 µM
- TGI (IGROV1 ovarian): > 100 µM
- TGI (K-562 leukemia): > 100 µM
- TGI (KM12 colon): > 100 µM
- TGI (KM20L2 colon): > 100 µM
- TGI (LOX IMVI melanoma): > 100 µM
- TGI (LXFL 529 NSCLC): > 100 µM
- TGI (M14 melanoma): > 100 µM
- TGI (M19-MEL melanoma): > 100 µM
- TGI (MALME-3M melanoma): > 100 µM
- TGI (MOLT-4 leukemia): > 100 µM
- TGI (NCI-H226 lung): > 100 µM
- TGI (NCI-H23 lung): > 100 µM
- TGI (NCI-H460 lung): > 100 µM
- TGI (NCI-H522 lung): > 100 µM
- TGI (OVCAR-3 ovarian): > 100 µM
- TGI (OVCAR-4 ovarian): > 100 µM
- TGI (OVCAR-5 ovarian): > 100 µM
- TGI (OVCAR-8 ovarian): > 100 µM
- TGI (RPMI-8226 leukemia): > 100 µM
- TGI (RXF 393 renal): > 100 µM
- TGI (SF-268 CNS): > 100 µM
- TGI (SF-295 CNS): > 100 µM
- TGI (SF-539 CNS): > 100 µM
- TGI (SK-MEL-2 melanoma): > 100 µM
- TGI (SK-MEL-28 melanoma): > 100 µM
- TGI (SK-MEL-5 melanoma): > 100 µM
- TGI (SN12C renal): > 100 µM
- TGI (SNB-19 CNS): > 100 µM
- TGI (SNB-75 CNS): > 100 µM
- TGI (SNB-78 CNS): > 100 µM
- TGI (SR leukemia): > 100 µM
- TGI (SW-620 colon): > 100 µM
- TGI (TK-10 renal): > 100 µM
- TGI (U251 CNS): > 100 µM
- TGI (UACC-62 melanoma): > 100 µM
- TGI (UO-31 renal): > 100 µM
- TGI (XF 498 CNS): > 100 µM
